Test results reported in publication PMC12430544 (Molecules, 2025).

Columns and labels:
[1] = Metal chelation by UV–vis spectrometry, Job's method and affinity estimate (Cu); format: physicochemical; conditions: CH3OH/H2O (v/v = 9/1), UV–vis, 2L+M⇔ML2
Source text: (§1) Given the 8-hydroxy(amino)quinoline moiety with the properties to bind metal ions, the abilities of all the compounds in binding metal ions (Cu^II, Fe^III, Zn^II) were studied by UV–vis spectrometry. At first three compounds were chose to test the binding abilities. Upon the addition of CuCl2 or ZnSO4 the maximum absorption suffered a bathochromic shift, pointing out the formation of complex compound–Cu^II. […] […].
(§2) To determine the stoichiometry of the complex compound–Cu^II, the technique of continuous variations (also called Job’s method) was used by preparing solutions of compounds 15a, 17b and CuSO4 so that the sum of concentrations of both species was constant at […] in all samples, but the proportions of both components varied between 0 and 100%. The UV spectra were recorded and the absorbance change at the maximum absorption wavelength of the compound-Cu^II complex, meaning the 15a-Cu^II complex at 264 nm and the 17b-Cu^II at 265 nm, respectively. The absorbance change was plotted versus the mole fraction of the compound, giving two straight lines whose equations were calculated. […] […].
(§3) Since all the ligands studied L from ML2 species and in accordance with the Beer–Lambert law, complexation reactions can be summarized as 2L+M⇔ML2 with K = 1−α/4C^2α^3 , and α can be calculated from the data of the absorption.
(§4) Metal-chelating properties were evaluated by UV–vis spectrometry. To screen the ability of chelating metal ions, the same concentrations of compound and metal ion were mixed in CH3OH/H2O (v/v = 9/1), and the UV–vis spectrum was tested; compared to the compound, the maximum absorption that suffered a bathochromic shift would point out the formation of a complex compound–metal ion. The stoichiometry of the complex compound–metal ion was determined by Job’s method. The affinity of compounds 15–17 as ligands (excepted 15f, 16d, 16g, 16k) for Cu^II or Zn^II were estimated in the CH3OH/H2O solution (v/v = 9/1). Since all the ligands studied L from ML2 species and in accordance with the Beer–Lambert law, complexation reactions can be summarized as 2L+M⇔ML2 with K = 1−α/4C^2α^3 , and α = A/Amax; A was the data of absorption tested when the compound–metal ion = 2/1 under the maximum absorption wavelength of the complex, Amax was the absorption when the compound completely formed a complex with the metal ion; the data can be obtained as an approximation when the metal ion is in excess, and the absorption changes little as the concentration of metal ion still increases.

[2] = Metal chelation by UV–vis spectrometry, stoichiometry and affinity estimate (Zn); format: physicochemical; conditions: CH3OH/H2O (v/v = 9/1), 2L+M⇔ML2
Source text: as §1, §2, §3, §4

[3] = target: T1, acetylcholinesterase (AChE, from an electric eel) (Electrophorus electricus, UniProt O42275); test: biochemical; conditions: for IC50: electric eel AChE, Ellman's method, pH 7.4, means ± SEM of at least three experiments, read-out: IC50 AChE Inhibition; for Selectivity Index = IC50 (AChE)/IC50 (BuChE): ratio of eeAChE and equine BuChE IC50
T1 construct: purchased Sigma-Aldrich
Method: (§5) Cholinesterase (ChE) inhibitory activity was evaluated using a modified Ellman’s spectrophotometric method. Acetylcholinesterase (AChE, from electric eel), butyrylcholinesterase (BuChE, from equine serum), 5,5′-dithiobis-(2-nitrobenzoic acid) (Ellman’s reagent, DTNB), S-butyrylthiocholine iodide (BTCI), acetylthiocholine iodide (ATCI), and tarcine hydrochloride were purchased from Sigma-Aldrich. Tarcine hydrochloride was used as a reference standard. All the assays were carried out in 0.1 M KH2PO4/K2HPO4 buffer (pH = 7.4). Stock solutions of tested compounds (10 mM) were prepared in DMSO (below 0.5%, v/v) and diluted in phosphate buffer. The assay was performed in 96-well plate by adding 25 μL of 1 mM acetylthiocholine iodide or butyrylthiocholine iodide used as substrate in the assay, 125 μL of 1 mM 5,5′-dithiobis-(2-nitrobenzoic acid) (DTNB), 25 μL of 0.1 M phosphate buffer (pH = 7.4), 25 μL of testing substance in various concentrations, and 50 μL of 0.2 Units/mL AChE from an electric eel or BuChE from equine serum, respectively. At least five concentrations of the test compounds were assayed. […] The enzyme activity and the percentage inhibition were determined.

[4] = target: T2, butyrylcholinesterase (BuChE, from horse serum) (Equus caballus, UniProt P81908); test: biochemical; conditions: equine serum BuChE, Ellman's method, pH 7.4; means ± SEM of at least three experiments; read-out: IC50 BuChE Inhibition
T2 construct: purchased Sigma-Aldrich
Method: as §5

Aβ1–42 = target: T3, Aβ1–42 (Homo sapiens, UniProt P05067); test: Inhibition of self-induced Aβ1–42 aggregation (ThT fluorescence); format: biochemical; conditions: 20 μM compound, thioflavin-T fluorescence, mean ± SD of at least three independent experiments; read-out: Aβ Aggregation Inhibition (%), self-induced Aβ1–42
T3 construct: aggregation of Aβ1–42 synthetic peptide into fibrils
Method: Self-induced Aβ1–42 aggregation of all the compounds we obtained was also evaluated. […] ThT is a histochemical dye that is known to bind to the peptide β-sheet conformation, which is the predominant secondary structure of amyloid-beta fibrils. […] The inhibition studies were carried out upon incubating Aβ1–42 with and without the compounds.
Aβ1–42 was dissolved in 100% 1,1,1,3,3,3-[…] (HFIP) to a concentration of 1 mg/mL, sonicated in a water bath overnight, aliquoted into microcentrifuge tubes, dried under vacuum, and stored at −20 °C. Immediately prior to use, the HFIP-treated Aβ1–42 was dissolved in dimethylsulfoxide (DMSO) as the stored solution. […] Amounts of 5 μL of compound (200 μM) and 5 μL of 200 μM Aβ1–42 were added into 40 μL of phosphate-buffered saline (PBS at pH 7.4). After incubation at room temperature on a thermostatic shaker for 72 h, 100 μL of 5 μM ThT solution (in PBS at pH 7.4) was added to the reaction solution. […] The Aβ1–42 aggregation inhibition percentage was calculated using the following formula: inhibition percentage = (F1 − F2)/(F1 − F0) × 100%.

T2 sequence (P81908 whole entry): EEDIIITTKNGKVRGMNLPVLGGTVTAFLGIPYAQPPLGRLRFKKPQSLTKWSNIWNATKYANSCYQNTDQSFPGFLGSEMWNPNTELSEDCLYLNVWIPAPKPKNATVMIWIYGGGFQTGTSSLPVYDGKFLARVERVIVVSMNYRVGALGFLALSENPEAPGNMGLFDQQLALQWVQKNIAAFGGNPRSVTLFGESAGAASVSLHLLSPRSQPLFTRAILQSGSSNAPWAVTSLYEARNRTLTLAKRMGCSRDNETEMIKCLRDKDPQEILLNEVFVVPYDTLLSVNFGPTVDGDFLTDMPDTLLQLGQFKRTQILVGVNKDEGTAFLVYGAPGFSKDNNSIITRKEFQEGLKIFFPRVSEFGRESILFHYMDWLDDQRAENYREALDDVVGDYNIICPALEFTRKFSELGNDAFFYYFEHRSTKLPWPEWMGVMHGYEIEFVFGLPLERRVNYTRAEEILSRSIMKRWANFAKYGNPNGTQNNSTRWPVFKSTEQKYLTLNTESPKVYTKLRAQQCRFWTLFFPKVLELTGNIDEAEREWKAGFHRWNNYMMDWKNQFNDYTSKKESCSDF
T3 sequence (P05067 672-713): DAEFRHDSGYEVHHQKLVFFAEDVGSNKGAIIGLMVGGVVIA
T1 sequence (O42275 24-633): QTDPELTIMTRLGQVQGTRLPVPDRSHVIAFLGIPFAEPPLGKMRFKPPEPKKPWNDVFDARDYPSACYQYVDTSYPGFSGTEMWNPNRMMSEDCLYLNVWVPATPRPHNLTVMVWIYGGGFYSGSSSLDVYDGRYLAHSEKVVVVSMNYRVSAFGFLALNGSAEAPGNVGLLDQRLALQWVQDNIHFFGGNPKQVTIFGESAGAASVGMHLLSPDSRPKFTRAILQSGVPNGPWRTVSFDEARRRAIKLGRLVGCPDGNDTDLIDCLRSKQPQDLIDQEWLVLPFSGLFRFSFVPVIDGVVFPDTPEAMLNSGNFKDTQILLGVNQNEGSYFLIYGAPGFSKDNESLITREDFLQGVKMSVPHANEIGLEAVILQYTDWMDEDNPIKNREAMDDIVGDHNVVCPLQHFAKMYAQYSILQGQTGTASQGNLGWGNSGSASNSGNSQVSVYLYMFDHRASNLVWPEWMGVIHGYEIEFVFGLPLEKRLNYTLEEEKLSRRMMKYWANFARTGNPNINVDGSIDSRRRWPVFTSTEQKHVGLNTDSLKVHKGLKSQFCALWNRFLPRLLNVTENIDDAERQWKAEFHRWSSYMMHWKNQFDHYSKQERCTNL

O=C(CN1CCN(Cc2ccc3c(Cl)ccc(O)c3n2)CC1)Nc1c2c(nc3ccccc13)CCCC2 [Compound 15b, 2-(4-((5-Chloro-8-hydroxyquinolin-2-yl)methyl)piperazin-1-yl)-N-(1,2,3,4-tetrahydroacridin-9-yl)acetamide]
LogK Cu (affinity of ligand for Cu^II, ML2) [1]: 10.09 | LogK Zn (affinity of ligand for Zn^II, ML2) [2]: 11.34 | IC50 [3]: 2180 ± 170 nM | Selectivity Index = IC50 (AChE)/IC50 (BuChE) [3]: 0.19 | IC50 [4]: 11500 ± 1560 nM

O=C(CN1CCN(Cc2ccc3c(Cl)cc(Cl)c(O)c3n2)CC1)Nc1c2c(nc3ccccc13)CCCC2 [Compound 15e, 2-(4-((5,7-Dichloro-8-hydroxyquinolin-2-yl)methyl)piperazin-1-yl)-N-(1,2,3,4-tetrahydroacridin-9-yl)acetamide]
inhibition at 20 µM (Aβ1–42): 55.9 ± 2.5% | LogK Cu (affinity of ligand for Cu^II, ML2) [1]: 9.59 | LogK Zn (affinity of ligand for Zn^II, ML2) [2]: 9.65 | IC50 [3]: 5730 ± 170 nM | Selectivity Index = IC50 (AChE)/IC50 (BuChE) [3]: 1.04 | IC50 [4]: 5530 ± 270 nM

Nc1cccc2ccc(CN3CCN(CC(=O)Nc4c5c(nc6ccccc46)CCCC5)CC3)nc12 [Compound 15f, 2-(4-((8-Aminoquinolin-2-yl)methyl)piperazin-1-yl)-N-(1,2,3,4-tetrahydroacridin-9-yl)acetamide]
inhibition at 20 µM (Aβ1–42): 22 ± 1.8% | IC50 [3]: 1240 ± 210 nM | Selectivity Index = IC50 (AChE)/IC50 (BuChE) [3]: 0.16 | IC50 [4]: 7850 ± 710 nM

Oc1cccc2ccc(CN3CCN(CCNc4c5c(nc6ccccc46)CCCC5)CC3)nc12 [Compound 16a, 2-((4-(2-((1,2,3,4-Tetrahydroacridin-9-yl)amino)ethyl)piperazin-1-yl)methyl)quinolin-8-ol]
inhibition at 20 µM (Aβ1–42): 77 ± 4.3% | LogK Cu (affinity of ligand for Cu^II, ML2) [1]: 9.63 | LogK Zn (affinity of ligand for Zn^II, ML2) [2]: 9.48 | IC50 [3]: 440 ± 6 nM | Selectivity Index = IC50 (AChE)/IC50 (BuChE) [3]: 1.63 | IC50 [4]: 270 ± 4 nM

Oc1ccc(F)c2ccc(CN3CCN(CCNc4c5c(nc6ccccc46)CCCC5)CC3)nc12 [Compound 16b, 5-Fluoro-2-((4-(2-((1,2,3,4-tetrahydroacridin-9-yl)amino)ethyl)piperazin-1-yl)methyl)quinolin-8-ol]
inhibition at 20 µM (Aβ1–42): 22.9 ± 2.4% | LogK Cu (affinity of ligand for Cu^II, ML2) [1]: 9.99 | LogK Zn (affinity of ligand for Zn^II, ML2) [2]: 9.63 | IC50 [3]: 190 ± 5 nM | Selectivity Index = IC50 (AChE)/IC50 (BuChE) [3]: 0.95 | IC50 [4]: 200 ± 3 nM

Oc1c(Cl)cc(Cl)c2ccc(CN3CCN(CCNc4c5c(nc6ccccc46)CCCC5)CC3)nc12 [Compound 16c, 5,7-Dichloro-2-((4-(2-((1,2,3,4-tetrahydroacridin-9-yl)amino)ethyl)piperazin-1-yl)methyl)quinolin-8-ol]
inhibition at 20 µM (Aβ1–42): 92.5 ± 3.3% | LogK Cu (affinity of ligand for Cu^II, ML2) [1]: 9.75 | LogK Zn (affinity of ligand for Zn^II, ML2) [2]: 9.28 | IC50 [3]: 2680 ± 300 nM | Selectivity Index = IC50 (AChE)/IC50 (BuChE) [3]: 0.79 | IC50 [4]: 3410 ± 6 nM

Nc1cccc2ccc(CN3CCN(CCNc4c5c(nc6ccccc46)CCCC5)CC3)nc12 [Compound 16d, N-(2-(4-((8-aminoquinolin-2-yl)methyl)piperazin-1-yl)ethyl)-1,2,3,4-tetrahydroacridin-9-amine]
inhibition at 20 µM (Aβ1–42): 84.7 ± 3.6% | IC50 [3]: 180 ± 4 nM | Selectivity Index = IC50 (AChE)/IC50 (BuChE) [3]: 0.86 | IC50 [4]: 210 ± 3 nM

Oc1ccc(F)c2ccc(CN3CCN(CCCNc4c5c(nc6ccccc46)CCCC5)CC3)nc12 [Compound 16f, 5-Fluoro-2-((4-(3-((1,2,3,4-tetrahydroacridin-9-yl)amino)propyl)piperazin-1-yl)methyl)quinolin-8-ol]
inhibition at 20 µM (Aβ1–42): 54.4 ± 2.9% | LogK Cu (affinity of ligand for Cu^II, ML2) [1]: 9.62 | LogK Zn (affinity of ligand for Zn^II, ML2) [2]: 9.45 | IC50 [3]: 87 ± 2 nM | Selectivity Index = IC50 (AChE)/IC50 (BuChE) [3]: 3.11 | IC50 [4]: 28 ± 2 nM

Nc1cccc2ccc(CN3CCN(CCCCCNc4c5c(nc6ccccc46)CCCC5)CC3)nc12 [Compound 16k, N-(5-(4-((8-aminoquinolin-2-yl)methyl)piperazin-1-yl)pentyl)-1,2,3,4-tetrahydroacridin-9-amine]
inhibition at 20 µM (Aβ1–42): 86.7 ± 3.8% | IC50 [3]: 210 ± 3 nM | Selectivity Index = IC50 (AChE)/IC50 (BuChE) [3]: 3.89 | IC50 [4]: 54 ± 4 nM

COc1cc(/C=C/C(=O)CC(=O)/C=C/c2ccc(O)c(OC)c2)ccc1O [curcumin, reference compound]
inhibition at 20 µM (Aβ1–42): 58.3 ± 2.5%
